Measurements published in paper PMC4172838 (Malaria Journal, 2014).

Key:
[1] = target: P-glycoprotein (P-gp/ABCB1) (Homo sapiens, UniProt P08183); test: Vesicular transport assay, P-gp-mediated NMQ uptake in HEK293 membrane vesicles; conditions: for P-gp-mediated NMQ transport, percentage of solvent control: 100 μM compound, NMQ 7 nM radio-labelled + 90 nM unlabelled, solvent control = 100% transport
Procedure: (§1) Human P-gp, BCRP, BSEP and MRP1-4 had previously been cloned into the Gateway pDONR221 vector. […] Gateway cloning was used to transfer the genes into a VSV-G improved pFastBacDual vector for mammalian cell transduction. The production of baculovirus was executed according to the Invitrogen Bac-to-Bac manual.
(§2) HEK293 cells were grown to 40% confluency in Dulbecco’s modified Eagle’s medium-GlutaMAX-I containing 10% foetal calf serum at 5% CO2 in 500 cm^2 triple flasks. Culture medium was removed and 25 mL of medium combined with 10 mL virus was added and incubated at RT for 20 min, followed by the addition of another 40 mL of complete medium including 5 mM sodium butyrate to enhance protein expression.
(§3) Cells were harvested three days post transduction by a 5-min centrifugation step at 3,000 g. Cells were resuspended in ice-cold hypotonic buffer (0.5 mM sodium phosphate, 0.1 mM EDTA, pH 7.0) containing protease inhibitors ([…] phenylmethylsulfonyl fluoride, 5 mg/ml aprotinin, 5 mg/ml leupeptin, 1 mg/ml pepstatin and 1 mg/ml E-64) and shaken at 4°C for 30 min. This lysate was centrifuged 100,000 xg for 30 min at 4°C, after which the pellet was homogenized in ice-cold TS buffer (10 mM Tris-HEPES and 250 mM sucrose, pH 7.4) supplemented with protease inhibitors described before using a tight-fitting Dounce homogenizer for 25 strokes. Two subsequent centrifugation steps at 4°C of firstly 20 min at 4,000 g followed by supernatant centrifugation for 60 min at 100,000 g ensured harvesting of the membrane fraction. The pellet was resuspended in ice-cold protease free TS buffer and passed 25 times through a 27-gauge needle to enhance membrane vesicle formation. Protein concentration in these vesicles was determined using the Bio-Rad protein assay, vesicles were flash-frozen in N2 and stored at -80°C.
(§4) A rapid filtration technique that has been described earlier was applied to evaluate uptake of transporter specific substrates into the vesicles; NMQ for P-gp, E1S for BCRP, E217βG for MRP1-4 and TCA for BSEP [20]. Briefly, 0.015-0.15 μCi of labelled substrate was combined with unlabelled substrates to a concentration of 0.1-1 μM in a 30 μL reaction mixture with 4 mM ATP, 10 mM MgCl2 and 7.5 μg total protein membrane vesicles in TS buffer. Transport was allowed by transfer of the plates to 37°C during 1–5 min, a time-point within the linear phase of time-dependent transport, as previously determined. Hereafter, the reaction was rapidly stopped by placing the plates back on ice and the addition of 150 μL ice-cold TS buffer. Samples were subsequently transferred to a 96-well filter plate that had been pre-incubated with TS buffer, and filtered using a multiscreen HTS-vacuum manifold filtration device (Millipore). Filters were washed and extracted, after which 2 mL scintillation fluid was added to each filter. Radioactive signal on the filters was determined by liquid scintillation counting. Negative controls included eYFP-transduced vesicles and AMP instead of ATP in the reaction mixture.
In the first screen, all anti-malarial compounds were added to the reaction mixture to evaluate transport inhibition at a concentration of 100 μM. […] Results were depicted and statistically analysed using Graphpad Prism, version 5.03. IC50 values were determined by nonlinear regression analysis of (log) inhibitor-response curves with variable slope.

[2] = target: T1, breast cancer resistance protein (BCRP/ABCG2) (Homo sapiens, UniProt Q9UNQ0); test: Vesicular transport assay, BCRP-mediated estrone sulphate uptake in HEK293 membrane vesicles; conditions: for BCRP-mediated estrone sulphate transport, percentage of solvent control: 100 μM compound, estrone sulphate 74 nM, solvent control = 100% transport
T1 sequence (Q9UNQ0 1-655): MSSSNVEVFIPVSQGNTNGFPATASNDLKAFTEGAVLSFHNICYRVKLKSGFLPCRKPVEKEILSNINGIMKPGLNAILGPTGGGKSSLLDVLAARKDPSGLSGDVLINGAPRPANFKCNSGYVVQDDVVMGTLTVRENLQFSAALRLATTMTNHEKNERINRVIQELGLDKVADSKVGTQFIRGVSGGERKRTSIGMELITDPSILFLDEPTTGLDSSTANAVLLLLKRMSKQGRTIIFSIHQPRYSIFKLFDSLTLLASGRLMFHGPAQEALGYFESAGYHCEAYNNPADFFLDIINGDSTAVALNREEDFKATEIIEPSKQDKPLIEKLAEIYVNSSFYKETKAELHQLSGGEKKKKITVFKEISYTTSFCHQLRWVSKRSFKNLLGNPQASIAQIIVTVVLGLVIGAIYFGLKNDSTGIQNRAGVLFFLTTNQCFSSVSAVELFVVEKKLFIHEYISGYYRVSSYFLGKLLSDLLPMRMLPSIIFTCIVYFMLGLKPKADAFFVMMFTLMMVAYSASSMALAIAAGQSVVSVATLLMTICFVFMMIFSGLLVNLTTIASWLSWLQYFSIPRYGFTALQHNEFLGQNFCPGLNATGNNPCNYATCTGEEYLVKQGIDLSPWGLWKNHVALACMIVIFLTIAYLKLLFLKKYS
Procedure: as §1, §2, §3, §4
In the first screen, all anti-malarial compounds were added to the reaction mixture to evaluate transport inhibition at a concentration of 100 μM. […] When ATP-dependent uptake was reduced more than 66.7%, the compound was considered a potential inhibitor, and multiple concentrations were tested in the reaction mixture to determine the IC50 value. All concentrations were tested in duplicates or triplicates in two individual biological replicates containing vesicles of independent transductions. Results were depicted and statistically analysed using Graphpad Prism, version 5.03. IC50 values were determined by nonlinear regression analysis of (log) inhibitor-response curves with variable slope.

[3] = tested on: BCRP; conditions: cited from earlier work; for IC50: described as BCRP inhibitors, not substrates, read-out: IC50 of BCRP inhibition
[4] = tested on: T2, MRP2; test: Vesicular transport assay, MRP2-mediated E217βG uptake in HEK293 membrane vesicles; format: biochemical, human; conditions: 100 μM compound; E217βG 150 nM; solvent control = 100% transport
T2 construct: made in house; host or cells: HEK293 cells transduced with baculovirus; isolated membrane vesicles
Procedure: as §1
(§5) HEK293 cells were grown to 40% confluency in Dulbecco’s modified Eagle’s medium-GlutaMAX-I containing 10% foetal calf serum at 5% CO2 in 500 cm^2 triple flasks. […]
(§6) Cells were harvested three days post transduction by a 5-min centrifugation step at 3,000 g. […] Protein concentration in these vesicles was determined using the Bio-Rad protein assay, vesicles were flash-frozen in N2 and stored at -80°C.
(§7) A rapid filtration technique that has been described earlier was applied to evaluate uptake of transporter specific substrates into the vesicles; NMQ for P-gp, E1S for BCRP, E217βG for MRP1-4 and TCA for BSEP [20]. […] Transport was allowed by transfer of the plates to 37°C during 1–5 min, a time-point within the linear phase of time-dependent transport, as previously determined. […] Radioactive signal on the filters was determined by liquid scintillation counting. […]
(§8) In the first screen, all anti-malarial compounds were added to the reaction mixture to evaluate transport inhibition at a concentration of 100 μM. […] Results were depicted and statistically analysed using Graphpad Prism, version 5.03. […]

[5] = tested on: T3, MRP1; test: Vesicular transport assay, MRP1-mediated E217βG uptake in HEK293 membrane vesicles; format: biochemical, human; conditions: 100 μM compound; E217βG 150 nM; solvent control = 100% transport
T3 construct: made in house; host or cells: HEK293 cells transduced with baculovirus; isolated membrane vesicles
Procedure: as §1, §5, §6, §7, §8

[6] = tested on: T4, bile salt export pump (BSEP/ABCB11); test: Vesicular transport assay, BSEP-mediated taurocholic acid uptake in HEK293 membrane vesicles; format: biochemical, human; conditions: 100 μM compound; taurocholic acid 1 μM; solvent control = 100% transport
T4 construct: made in house; host or cells: HEK293 cells transduced with baculovirus; isolated membrane vesicles
Procedure: Cells were harvested three days post transduction by a 5-min centrifugation step at 3,000 g. Cells were resuspended in ice-cold hypotonic buffer (0.5 mM sodium phosphate, 0.1 mM EDTA, pH 7.0) containing protease inhibitors (100 mM phenylmethylsulfonyl fluoride, 5 mg/ml aprotinin, 5 mg/ml leupeptin, 1 mg/ml pepstatin and 1 mg/ml E-64) and shaken at 4°C for 30 min. This lysate was centrifuged 100,000 xg for 30 min at 4°C, after which the pellet was homogenized in ice-cold TS buffer (10 mM Tris-HEPES and 250 mM sucrose, pH 7.4) supplemented with protease inhibitors described before using a tight-fitting Dounce homogenizer for 25 strokes. Two subsequent centrifugation steps at 4°C of firstly 20 min at 4,000 g followed by supernatant centrifugation for 60 min at 100,000 g ensured harvesting of the membrane fraction. The pellet was resuspended in ice-cold protease free TS buffer and passed 25 times through a 27-gauge needle to enhance membrane vesicle formation. Protein concentration in these vesicles was determined using the Bio-Rad protein assay, vesicles were flash-frozen in N2 and stored at -80°C.
A rapid filtration technique that has been described earlier was applied to evaluate uptake of transporter specific substrates into the vesicles; NMQ for P-gp, E1S for BCRP, E217βG for MRP1-4 and TCA for BSEP [20]. Briefly, 0.015-0.15 μCi of labelled substrate was combined with unlabelled substrates to a concentration of 0.1-1 μM in a 30 μL reaction mixture with 4 mM ATP, 10 mM MgCl2 and 7.5 μg total protein membrane vesicles in TS buffer. Transport was allowed by transfer of the plates to 37°C during 1–5 min, a time-point within the linear phase of time-dependent transport, as previously determined [15–19]. Hereafter, the reaction was rapidly stopped by placing the plates back on ice and the addition of 150 μL ice-cold TS buffer. Samples were subsequently transferred to a 96-well filter plate that had been pre-incubated with TS buffer, and filtered using a multiscreen HTS-vacuum manifold filtration device (Millipore). […] Radioactive signal on the filters was determined by liquid scintillation counting. […]
All concentrations were tested in duplicates or triplicates in two individual biological replicates containing vesicles of independent transductions. […] IC50 values were determined by nonlinear regression analysis of (log) inhibitor-response curves with variable slope. […]

[7] = cited from earlier work
[8] = tested on: T5, MRP3; test: Vesicular transport assay, MRP3-mediated E217βG uptake in HEK293 membrane vesicles; format: biochemical, human; conditions: 100 μM compound; E217βG 150 nM; solvent control = 100% transport
T5 construct: made in house; host or cells: HEK293 cells transduced with baculovirus; isolated membrane vesicles
From the text: Some sequences did hold silent mutations of described polymorphisms.

[9] = set-up: method as in PMID 21600016; conditions: 12-hour measurement interval; co-administration with ATO/PG (250/100 mg) prophylaxis, one HIV patient; cited from earlier work
[10] = daily prophylactic dose of 250 mg

P-glycoprotein (P-gp/ABCB1), sequence (P08183 whole entry): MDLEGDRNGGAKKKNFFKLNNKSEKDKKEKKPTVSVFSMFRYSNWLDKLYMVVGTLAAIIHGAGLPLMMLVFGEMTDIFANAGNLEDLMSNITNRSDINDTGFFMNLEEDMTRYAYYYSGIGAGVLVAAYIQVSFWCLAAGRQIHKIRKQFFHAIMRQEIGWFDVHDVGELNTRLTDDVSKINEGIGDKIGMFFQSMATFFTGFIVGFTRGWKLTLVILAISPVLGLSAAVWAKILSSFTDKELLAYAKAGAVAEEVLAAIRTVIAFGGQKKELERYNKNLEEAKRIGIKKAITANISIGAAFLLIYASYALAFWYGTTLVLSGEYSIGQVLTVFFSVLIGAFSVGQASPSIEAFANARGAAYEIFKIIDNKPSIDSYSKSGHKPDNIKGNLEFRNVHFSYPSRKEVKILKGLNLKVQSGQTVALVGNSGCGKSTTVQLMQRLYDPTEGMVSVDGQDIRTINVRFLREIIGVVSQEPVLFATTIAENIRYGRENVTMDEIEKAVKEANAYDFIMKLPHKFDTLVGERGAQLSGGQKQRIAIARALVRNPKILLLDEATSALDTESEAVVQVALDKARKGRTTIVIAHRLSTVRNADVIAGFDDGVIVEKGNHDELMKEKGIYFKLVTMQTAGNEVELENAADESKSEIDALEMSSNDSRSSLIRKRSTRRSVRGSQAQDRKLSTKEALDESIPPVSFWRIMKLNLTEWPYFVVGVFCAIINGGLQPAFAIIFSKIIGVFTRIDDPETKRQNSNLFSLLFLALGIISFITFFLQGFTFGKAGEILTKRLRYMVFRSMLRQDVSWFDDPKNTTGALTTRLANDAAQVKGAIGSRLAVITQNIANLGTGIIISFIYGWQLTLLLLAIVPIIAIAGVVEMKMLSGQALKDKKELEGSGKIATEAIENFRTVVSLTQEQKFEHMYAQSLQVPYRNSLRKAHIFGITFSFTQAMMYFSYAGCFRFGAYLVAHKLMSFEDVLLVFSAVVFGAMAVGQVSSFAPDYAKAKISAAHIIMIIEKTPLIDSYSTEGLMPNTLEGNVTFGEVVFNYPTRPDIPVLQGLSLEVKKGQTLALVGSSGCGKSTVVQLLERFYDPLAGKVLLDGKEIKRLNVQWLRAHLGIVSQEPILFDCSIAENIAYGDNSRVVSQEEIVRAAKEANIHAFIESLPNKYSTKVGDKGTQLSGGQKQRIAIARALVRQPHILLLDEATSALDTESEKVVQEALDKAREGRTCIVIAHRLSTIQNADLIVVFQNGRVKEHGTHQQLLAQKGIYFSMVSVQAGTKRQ

CCN(CC)CCCC(C)Nc1ccnc2cc(Cl)ccc12 (stereo not shown) [CQ, chloroquine]
P-gp-mediated NMQ transport, percentage of solvent control [1]: 50% | BCRP-mediated estrone sulphate transport, percentage of solvent control [2]: 69%

Cc1cccc(C)c1OCC(=O)N[C@@H](Cc1ccccc1)[C@@H](O)C[C@H](Cc1ccccc1)NC(=O)[C@H](C(C)C)N1CCCNC1=O [lopinavir]
BCRP-mediated transport inhibition (in words) [3]: inhibitors of BCRP-mediated transport

O=C1Nc2ccc(Cl)cc2[C@@](C#CC2CC2)(C(F)(F)F)O1 [efavirenz]
BCRP-mediated transport inhibition (in words) [3]: inhibitors of BCRP-mediated transport

O=C1C(O)=C([C@H]2CC[C@H](c3ccc(Cl)cc3)CC2)C(=O)c2ccccc21 [ATO, atovaquone]
MRP2-mediated estradiol 17-β-D glucuronide transport, percentage of solvent control [4]: 162% | MRP1-mediated estradiol 17-β-D glucuronide transport, percentage of solvent control [5]: 141% | BSEP-mediated taurocholic acid transport, percentage of solvent control [6]: 54% | Maximal blood plasma concentration [7, 10]: around 14 μM | Maximal blood plasma concentration, range [7, 10]: 8 to 26 µM | IC50 [2]: 0.23 µM | BCRP-mediated estrone sulphate transport, percentage of solvent control [2]: 22%

[H]/N=C(\N/C(=N/[H])Nc1ccc(Cl)cc1)NC(C)C [PG, proguanil]
P-gp-mediated NMQ transport, percentage of solvent control [1]: 76% | IC50 [2]: 118 µM | BCRP-mediated estrone sulphate transport, percentage of solvent control [2]: 36%

maraviroc
BCRP inhibition (in words) [3]: do not inhibit BCRP

OC(c1cc(C(F)(F)F)nc2c(C(F)(F)F)cccc12)C1CCCCN1 (stereo not shown) [MQ, mefloquine]
MRP1-mediated estradiol 17-β-D glucuronide transport, percentage of solvent control [5]: 50% | BSEP-mediated taurocholic acid transport, percentage of solvent control [6]: 72% | IC50 [1]: 72 µM | P-gp-mediated NMQ transport, percentage of solvent control [1]: 30% | MRP3-mediated estradiol 17-β-D glucuronide transport, percentage of solvent control [8]: 70% | IC50 [2]: 18 µM | BCRP-mediated estrone sulphate transport, percentage of solvent control [2]: 8.5%

CC(C)(C)NC(=O)[C@@H]1C[C@@H]2CCCC[C@@H]2CN1C[C@@H](O)[C@H](Cc1ccccc1)NC(=O)[C@H](CC(N)=O)NC(=O)c1ccc2ccccc2n1 [saquinavir]
IC50 [3]: 19.5 µM | Increase of AUC [9]: 274%

C[C@H]1[C@@H](O)O[C@@H]2O[C@@]3(C)CC[C@H]4[C@H](C)CC[C@@H]1[C@@]24OO3 [DHA, dihydroartemisinin]
BSEP-mediated taurocholic acid transport, percentage of solvent control [6]: 114% | P-gp-mediated NMQ transport, percentage of solvent control [1]: 112% | MRP3-mediated estradiol 17-β-D glucuronide transport, percentage of solvent control [8]: 121% | BCRP-mediated estrone sulphate transport, percentage of solvent control [2]: 70%

Cc1nnc(C(=O)NC(C)(C)c2nc(C(=O)NCc3ccc(F)cc3)c(O)c(=O)n2C)o1 [raltegravir]
BCRP inhibition (in words) [3]: do not inhibit BCRP

COC(=O)N[C@H](C(=O)N[C@@H](Cc1ccccc1)[C@@H](O)CN(Cc1ccc(-c2ccccn2)cc1)NC(=O)[C@@H](NC(=O)OC)C(C)(C)C)C(C)(C)C [atazinavir]
BCRP-mediated transport inhibition (in words) [3]: inhibitors of BCRP-mediated transport

CCCCN(CCCC)CC(O)c1cc(Cl)cc2c1-c1ccc(Cl)cc1/C2=C/c1ccc(Cl)cc1 (stereo not shown) [L, lumefantrine]
BCRP-mediated estrone sulphate transport, percentage of solvent control [2]: 44%

C[C@@H]1CC[C@H]2[C@@H](C)C(=O)O[C@@H]3O[C@@]4(C)CC[C@@H]1[C@]32OO4 [ART, artemisinin]
MRP2-mediated estradiol 17-β-D glucuronide transport, percentage of solvent control [4]: 151% | BSEP-mediated taurocholic acid transport, percentage of solvent control [6]: 117% | MRP3-mediated estradiol 17-β-D glucuronide transport, percentage of solvent control [8]: 122%

Cc1cc(C#N)cc(C)c1Oc1nc(Nc2ccc(C#N)cc2)nc(N)c1Br [etravirine]
IC50 [3]: 1 µM | Increase of AUC [9]: 55%

C=C[C@H]1C[N@@]2CC[C@H]1C[C@H]2[C@H](O)c1ccnc2ccc(OC)cc12 [Q, quinine]
Maximal plasma concentration ([7]; seven-day regimen of 10 mg/kg oral dose three times daily of quinine sulphate): 30 µM
